The text below walks through data of patent publication US11547694B2, “CXCR4/CXCR7 blockade and treatment of human papilloma virus-associated disease” (priority 2017, dated 2023).

The subject of one series is mature leukocytes. The settings on record: administration of AMD3100; cited from earlier work.
The target in a further series is CXCR4 (Homo sapiens, UniProt P61073). Particulars: cited from earlier work.
For series [1] the following is noted: 0.01-0.02 mg/kg subcutaneously twice daily for 6 months; phase I clinical trial (Blood 2014; 123(15):2308-16); cited from earlier work.
Series [2] deals with ovarian preclinical cancer model.
Another series relates to TC-1 tumor cells. Format: in vivo. The settings on record: C57BL/6 mice with s.c. TC-1 tumors.

Sequence of CXCR4 (P61073 whole entry): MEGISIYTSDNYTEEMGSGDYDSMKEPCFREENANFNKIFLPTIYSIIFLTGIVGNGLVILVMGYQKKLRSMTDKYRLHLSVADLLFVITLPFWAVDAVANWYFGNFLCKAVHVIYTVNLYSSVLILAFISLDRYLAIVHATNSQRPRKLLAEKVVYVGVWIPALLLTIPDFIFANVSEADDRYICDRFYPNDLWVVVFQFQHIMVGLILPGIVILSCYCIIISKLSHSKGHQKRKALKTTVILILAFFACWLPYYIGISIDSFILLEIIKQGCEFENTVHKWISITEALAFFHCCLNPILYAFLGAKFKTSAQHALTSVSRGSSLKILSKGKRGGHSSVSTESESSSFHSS
Source text for TC-1 tumor cells: Methods. C57BL/6 mice were inoculated with 1×10^5 TC-1 tumor cells subcutaneously into the right flank. When tumors reached approximately 60-70 mm^3 in size, various treatments were initiated. The treatment groups (N=5) consisted of no treatment, administration of an isotype control IgG antibody (clone 2A3, BioXcell), anti-PD-1 monotherapy (clone 29F.1A12, BioXcell), AMD3100 monotherapy (catalog AB120718, AbCam), combination of AMD3100 and anti-PD-1 and combination of AMD3100, anti-PD-1, and an HPV vaccine (See, FIGS. 1, 2, 3, and 4).
The treatment regimen consisted of administration of 0.5 mg/mouse of anti-PD-1 antibody (clone 29F.1A12, BioXcell) or isotype control antibody (clone 2A3, BioXcell) every 5 days for a total of 3 treatments. Prior to each dose of antibody, the mice were treated with 3 mg/kg of AMD3100 (catalog AB120718, AbCam). In addition, a subset of mice were treated with a 1:1 ratio of 20 mcg of HPV E7 peptide vaccine and 20 mcg of poly I:C adjuvant in a total volume of 20 μl, which was administered intratumorally. The tumors were measured twice a week with calipers. When the tumor measured over 2 centimeters in any one direction, the animal was sacrificed according to IACUC policy.

As to `c1cc(CN2CCCNCCNCCCNCC2)ccc1CN1CCCNCCNCCCNCC1` [AMD3100], in the series with mature leukocytes, the “mobilization of leukocytes into the blood” value is recorded as “rapidly mobilize all major subsets of mature leukocytes into the blood”. Besides, the “antagonism of CXCR4” value on CXCR4 is given as “highly specific antagonist of CXCR4”. For the same compound, in series [1], the “safety of long-term, low-dose treatment” value is recorded as “demonstrated the safety”. Also, in series [2], the “CD8+ T cells” value is on record as “increase”, the Treg infiltration entry was “decrease” and the anti-tumor effect result was “enhanced anti-tumor effect”. In the series on TC-1 tumor cells (AMD3100 3 mg/kg before each antibody dose, anti-PD-1 0.5 mg/mouse every 5 days x3, HPV E7 peptide vaccine intratumorally, caliper tumor volume), the “anti-tumor effect (tumor growth, FIG. 1, FIG. 3)” value was “enhanced anti-tumor effect”. For the same compound, the “survival (FIG. 2, FIG. 4)” value in the series on TC-1 tumor cells (same regimen, Log-rank test) is on record as “prolonged survival”.
